From US10941114B2, “Small molecule lipid II inhibitors” (University Of Maryland, Baltimore, priority 2015, dated 2021)
Structures can show the parent of a compound that is named as a salt. Where two headings read alike, the source gives them in different places.

Experiments:
Escherichia coli = experiment: Antibacterial activity assay (MIC, broth dilution); assay type: cell-based
Staphylococcus aureus = experiment: Antibacterial activity assay (MIC, broth dilution); assay type: cell-based; parameters: S. aureus Killing / Bacterial Killing S. aureus: unit not given here
HeLa cells = experiment: Cytotoxicity testing (CC50, MTS assay)
in vivo [1] = settings: CD1, mouse, plasma, iv
Enterococcus faecium = experiment: Antibacterial activity assay (MIC, broth dilution); assay type: cell-based; parameters: Bacterial Killing E. faecium: unit: ug/mL; settings: for MIC: Enterococcus faecium, cation-adjusted Mueller Hinton broth, 10% BHI
Summary of the method: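 Broth dilution MIC per CLSI (M07-A10) in cation-adjusted Mueller Hinton broth with 10% brain-heart infusion; MIC is the lowest concentration preventing visible growth, in μg/mL. Some compounds were run by broth microdilution.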

[2] = in vivo
[3] = Pharmacokinetic study in mice (plasma concentration by LC/MS/MS)
in vivo [4] = settings: both, ICR, mouse
Pseudomonas aeruginosa = experiment: Antibacterial activity assay (MIC, broth dilution); assay type: cell-based; settings: MMX#-ATCC# 103-27853
[5] = test system: Burkholderia pseudomallei; assay type: cell-based; settings: K96243; according to DOD guidelines
[6] = In vivo efficacy of BAS00127538 (bacteria in spleen and blood); settings: samples collected at 50 hours post-infection from treated animals
Description: To determine the efficacy of […] in vivo, samples were collected from vehicle-treated animals at 20 hours or at 50 hours post-infection from vancomycin- and BAS-treated animals.

Yersinia pestis = assay type: cell-based; settings: CO92; according to DOD guidelines
Burkholderia mallei = assay type: cell-based; settings: 23344; according to DOD guidelines
Enterococcus faecalis = experiment: Antibacterial activity assay (MIC, broth dilution); assay type: cell-based; settings: for MIC: Enterococcus faecalis, cation-adjusted Mueller Hinton broth, 10% BHI
Streptococcus pneumoniae = experiment: Antibacterial activity assay (MIC, broth dilution); assay type: cell-based
Bacillus anthracis = assay type: cell-based
[7] = Liver microsome stability testing; assay type: in vitro ADME; settings: positive control; human liver microsomes
Description: The in vitro microsome stability assay was performed using human liver microsomes and a Biomek FXP™ liquid handling workstation to deliver reagents to a deep 96-well plate on a shaking peltier with temperature controls. Human liver microsomes were purchased from Corning™. The test compound was incubated in an aqueous reaction mixture (200 μL total volume) consisting of human liver microsomes (150 mixed donor pool) and NADPH Regenerating System Solutions A and B (Corning™) in the presence of 100 mM potassium phosphate buffer (pH 7.4). NADPH Regenerating System Solution A comprises nicotinamide adenine dinucleotide phosphate (NADP+) and glucose 6-phosphate; NADPH Regenerating System Solution B contains glucose-6-phosphate dehydrogenase. Solutions A and B were combined prior to adding to the reaction plate to generate a supply of NADPH. The NADPH was added last to initiate the reactions simultaneously. The final concentration of the test compound was 10 μM and the microsomal protein concentration was 0.5 mg/mL. […]
The half-life (t½) was calculated using the following equation:
[formula] where “slope” is the slope of the line formed by ln(% remaining test compound) vs. time. The in vitro intrinsic clearance (CLint) was calculated using equation: […]

[8] = determined as in Example 1E (MIC)
[9] = IV administration, single dose […], mice (n=3)

Compound: CN(C)c1ccc(/C=C/c2cc(-c3ccc(F)cc3)cc(-c3ccc(F)cc3)[o+]2)cc1 [Compound 7jc47-1, (E)-2-(4-(dimethylamino)styryl)-4,6-bis(4-fluorophenyl) pyrylium boron tetrafluoride salt]
- Bacterial Killing E. coli (Escherichia coli; [8]): >64
- Bacterial Killing S. aureus (Staphylococcus aureus; [8]): 1
- cytotoxicity in vitro (HeLa cells): no observable cytotoxicity in vitro
- AUC(0-inf) (in vivo [1]; 10 mg/kg): 578 ± 175 ng·h/mL
- Cmax (in vivo [1]; 10 mg/kg): 3220 ± 1500 ng/mL
- MRT (in vivo [1]; 10 mg/kg): 1.74 ± 0.49 h
- Vd (in vivo [1]; 10 mg/kg): 46.3 ± 12.9 L/kg
- half-life (in vivo [1]; 10 mg/kg): ~7 h
- Bacterial Killing E. faecium (Enterococcus faecium; [8]): 1
- AUCextrap ([2]; CD1, mouse, iv, 10 mg/kg): 2.25 ± 1.13%
- Cl3 ([2]; CD1, mouse, iv, 10 mg/kg): 23.6 ± 1.7 mL/min/kg
- T1/2 ([3]; mouse, in vivo, iv, 10 mg/kg): 6.81 ± 1.33 h
- MTD at 72 h (in vivo [4]): 60 mg/kg

Compound: CN1/C(=C/C=C/c2cc(-c3ccccc3)cc(-c3ccccc3)[o+]2)C(C)(C)c2ccccc21 [BAS00127538, 1-methyl-2,4-diphenyl-6-((1E,3E)-3-(1,3,3-trimethylindolin-2-ylidene)pro-p-1-en-1yl)pyryl-1-ium) tetrafluoroborate]
- MIC Escherichia coli (Escherichia coli; MMX#-ATCC# 102.25922): 4 µg/mL
- MIC Pseudomonas aeruginosa (Pseudomonas aeruginosa): > 8 µg/mL
- MIC Staphylococcus aureus (Staphylococcus aureus; MMX#-ATCC# 100-29213): 0.5 µg/mL
- MIC Burkholderia pseudomallei* [5]: 64 µg/mL
- survival of treated animals [6]: One animal treated with BAS did not survive beyond 28 hours
- MIC Yersinia pestis* (Yersinia pestis): 8 µg/mL
- MIC Burkholderia mallei* (Burkholderia mallei): > 64 µg/mL
- half-life (in vivo [1]; male, […]): 0.22 h
- MIC (Enterococcus faecium; read-out: MIC E. faecium C110914): 2 µg/mL
- MIC (Enterococcus faecium; read-out: MIC E. faecium IH79985): 2 µg/mL
- MIC (Enterococcus faecium; read-out: MIC E. faecium S1559): 2 µg/mL
- MIC (Enterococcus faecalis; read-out: MIC E. faecalis 51299): 2 µg/mL
- MIC (Enterococcus faecalis; read-out: MIC E. faecalis 51575): 2 µg/mL
- MIC (Enterococcus faecalis; read-out: MIC E. faecalis C99707): 2 µg/mL
- MIC Enterococcus faecalis (Enterococcus faecalis; MMX#-ATCC# 101-29212): 1 µg/mL
- MIC Enterococcus faecalis (VRE) (Enterococcus faecalis; MMX#-ATCC# 848-NA, vancomycin-resistant): 1 µg/mL
- detection in plasma ([2]; mouse, po, 5 mg/kg): could not be detected
- MIC Streptococcus pneumoniae (PRSP) (Streptococcus pneumoniae; MMX#-ATCC# 884-NA, penicillin-resistant): 8 µg/mL
- MIC Streptococcus pneumoniae (Streptococcus pneumoniae; MMX#-ATCC# 1195-49619): 8 µg/mL
- MIC Bacillus anthracis (spores)* (Bacillus anthracis; Ames, spores, according to DOD guidelines): 0.5 µg/mL
- MIC Bacillus anthracis* (Bacillus anthracis; Ames, according to DOD guidelines): 0.5 µg/mL
- MIC Bacillus anthracis Sterne (Bacillus anthracis; MMX#-ATCC# 109-NA): 0.5 µg/mL
- Cl_obs [3, 9]: 711 mL/min/kg
- T1/2 [3, 9]: 0.227 h
- Vss_obs [3, 9]: 12.2 L/kg
- T1/2 ([3]; comparator values repeated from Table 4 (IV, […])): 0.227 h
- AUClast/D ([3]; comparator values repeated from Table 4 (IV, […]), AUClast/D): 26.9 ng·h/mL
- volume of distribution ([3]; intravenous administration, single dose […], mice): 12.2 L/kg

Compound: COc1ccc2c(c1)[C@]13CCCC[C@@H]1[C@H](C2)N(C)CC3 [dextromethorphan]
- intrinsic clearance [7]: 31 µL/min/mg
